Laboratory results published in patent US10065963B2 (Incyte Corporation, priority 2015, dated 2018).
Where a name gives a salt, the structure may show the parent alone. Read-outs that look alike come from different tables or passages of the source.

What was measured:
[1] = target: PI3Kγ (p110γ) Recombinant Human Protein (Homo sapiens (Human), UniProt P48736); experiment: PI3K-γ scintillation proximity assay; assay type: biochemical; settings: 2 μM ATP, 20 μM PIP2
[2] = target: PI3Kδ (p110δ/p85α) Recombinant Human Protein (Homo sapiens (Human), UniProt O00329); experiment: PI3Kδ scintillation proximity assay; assay type: biochemical; settings: 2 μM ATP, 20 μM PIP2
[3] = test system: Phosphorylated Ribosomal Protein S6 (RPS6) in THP-1 cells; experiment: THP-1 RPS6 ELISA assay; assay type: cell-based, human; settings: 10 nM MCP-1, read-out: PI3Kγ_THP1_RPS6_ELISA IC50
[4] = Homo sapiens, THP-1, THP-1 cells

Sequence of PI3Kδ (p110δ/p85α) Recombinant Human Protein (O00329 whole entry): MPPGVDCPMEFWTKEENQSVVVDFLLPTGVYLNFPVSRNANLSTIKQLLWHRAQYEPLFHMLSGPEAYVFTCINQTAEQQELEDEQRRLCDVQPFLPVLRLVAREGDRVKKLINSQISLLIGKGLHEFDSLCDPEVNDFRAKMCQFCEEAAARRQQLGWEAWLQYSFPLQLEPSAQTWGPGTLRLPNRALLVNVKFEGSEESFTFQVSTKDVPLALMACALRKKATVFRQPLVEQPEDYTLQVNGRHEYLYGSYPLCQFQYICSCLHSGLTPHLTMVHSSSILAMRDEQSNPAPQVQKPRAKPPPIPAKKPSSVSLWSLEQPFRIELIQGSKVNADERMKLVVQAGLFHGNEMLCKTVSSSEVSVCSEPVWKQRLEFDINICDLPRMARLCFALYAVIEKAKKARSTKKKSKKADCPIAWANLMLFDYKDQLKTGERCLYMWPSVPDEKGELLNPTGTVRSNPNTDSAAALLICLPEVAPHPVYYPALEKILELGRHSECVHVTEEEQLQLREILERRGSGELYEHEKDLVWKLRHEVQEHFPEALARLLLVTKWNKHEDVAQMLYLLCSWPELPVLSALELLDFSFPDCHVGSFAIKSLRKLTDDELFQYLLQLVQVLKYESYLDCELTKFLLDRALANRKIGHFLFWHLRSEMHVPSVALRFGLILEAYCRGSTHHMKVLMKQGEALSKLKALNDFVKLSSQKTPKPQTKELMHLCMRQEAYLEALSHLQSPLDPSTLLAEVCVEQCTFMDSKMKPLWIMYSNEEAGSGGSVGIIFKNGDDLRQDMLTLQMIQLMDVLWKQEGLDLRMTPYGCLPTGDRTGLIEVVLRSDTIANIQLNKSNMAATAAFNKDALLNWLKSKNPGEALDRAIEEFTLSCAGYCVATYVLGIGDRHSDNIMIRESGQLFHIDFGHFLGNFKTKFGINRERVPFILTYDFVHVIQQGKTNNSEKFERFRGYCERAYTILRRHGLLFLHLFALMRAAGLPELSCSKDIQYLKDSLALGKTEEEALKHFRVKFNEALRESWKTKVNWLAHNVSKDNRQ
Sequence of PI3Kδ (p110δ/p85α) Recombinant Human Protein (P27986 whole entry partner): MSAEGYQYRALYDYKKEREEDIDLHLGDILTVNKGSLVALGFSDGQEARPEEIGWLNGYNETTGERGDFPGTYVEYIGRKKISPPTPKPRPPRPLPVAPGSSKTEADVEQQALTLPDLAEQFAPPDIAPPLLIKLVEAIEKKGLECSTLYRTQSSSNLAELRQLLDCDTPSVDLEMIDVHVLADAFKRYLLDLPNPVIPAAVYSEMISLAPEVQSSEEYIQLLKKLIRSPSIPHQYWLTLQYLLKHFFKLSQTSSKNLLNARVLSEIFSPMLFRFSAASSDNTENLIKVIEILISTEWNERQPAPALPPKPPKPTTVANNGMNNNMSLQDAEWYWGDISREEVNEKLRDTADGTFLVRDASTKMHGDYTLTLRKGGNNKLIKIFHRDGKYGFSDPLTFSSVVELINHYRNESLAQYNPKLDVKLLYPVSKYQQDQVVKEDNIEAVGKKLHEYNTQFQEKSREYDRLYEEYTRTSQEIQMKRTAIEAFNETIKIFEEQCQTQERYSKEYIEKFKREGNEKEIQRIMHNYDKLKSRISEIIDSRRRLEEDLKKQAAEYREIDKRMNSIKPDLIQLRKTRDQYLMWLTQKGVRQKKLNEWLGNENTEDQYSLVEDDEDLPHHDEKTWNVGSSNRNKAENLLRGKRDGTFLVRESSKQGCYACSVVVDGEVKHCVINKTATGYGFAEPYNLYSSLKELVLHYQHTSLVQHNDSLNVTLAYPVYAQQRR
Sequence of PI3Kγ (p110γ) Recombinant Human Protein (P48736 whole entry): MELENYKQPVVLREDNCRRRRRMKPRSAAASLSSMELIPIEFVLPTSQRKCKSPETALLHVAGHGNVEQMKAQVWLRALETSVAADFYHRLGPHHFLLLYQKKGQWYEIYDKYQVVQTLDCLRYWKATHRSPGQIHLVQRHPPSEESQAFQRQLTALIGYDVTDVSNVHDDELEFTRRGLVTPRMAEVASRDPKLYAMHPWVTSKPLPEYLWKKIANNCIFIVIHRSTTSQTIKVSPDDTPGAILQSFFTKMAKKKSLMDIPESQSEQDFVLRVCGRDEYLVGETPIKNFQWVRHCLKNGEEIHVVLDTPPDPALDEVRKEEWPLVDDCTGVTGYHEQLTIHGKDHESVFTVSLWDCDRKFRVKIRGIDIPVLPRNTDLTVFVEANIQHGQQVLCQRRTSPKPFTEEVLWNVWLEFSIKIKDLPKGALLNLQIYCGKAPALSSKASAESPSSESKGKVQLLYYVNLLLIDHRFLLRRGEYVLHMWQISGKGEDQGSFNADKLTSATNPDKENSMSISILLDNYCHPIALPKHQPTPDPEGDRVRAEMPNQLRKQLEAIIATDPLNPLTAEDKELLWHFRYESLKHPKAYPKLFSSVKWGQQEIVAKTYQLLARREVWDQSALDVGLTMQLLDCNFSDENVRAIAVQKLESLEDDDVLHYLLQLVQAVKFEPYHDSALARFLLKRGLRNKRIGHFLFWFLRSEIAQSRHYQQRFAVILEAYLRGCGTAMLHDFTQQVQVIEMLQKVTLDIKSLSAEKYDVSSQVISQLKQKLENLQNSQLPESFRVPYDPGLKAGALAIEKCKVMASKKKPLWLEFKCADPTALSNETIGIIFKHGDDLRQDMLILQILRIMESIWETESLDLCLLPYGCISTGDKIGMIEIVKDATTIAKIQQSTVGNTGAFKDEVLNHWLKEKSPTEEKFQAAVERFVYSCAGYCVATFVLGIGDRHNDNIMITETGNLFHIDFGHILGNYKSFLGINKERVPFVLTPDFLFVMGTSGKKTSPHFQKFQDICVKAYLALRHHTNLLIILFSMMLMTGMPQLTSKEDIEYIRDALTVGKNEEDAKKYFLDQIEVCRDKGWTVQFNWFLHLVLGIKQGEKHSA

CC(NC(=O)c1c(N)nn2cccnc12)c1cc(Cl)c2cncn2c1N1CC[C@H](F)C1 (stereo partly drawn) [Example 75B, 2-Amino-N-(1-{8-chloro-5-[(3S)-3-fluoropyrrolidin-1-yl]imidazo[1,5-a]pyridin-6-yl}ethyl)pyrazolo[1,5-a]pyrimidine-3-carboxamide bistrifluoroacetate]
IC50 [1]: < 100 nM
IC50 [2]: < 100 nM
IC50 [3, 4]: < 500 nM

CC(NC(=O)c1c(N)nn2cccnc12)c1cc(Cl)c2ccnn2c1N1CCCS(=O)(=O)CC1 (stereo not drawn) [Example 109, 2-Amino-N-{1-[4-chloro-7-(1,1-dioxido-1,4-thiazepan-4-yl)pyrazolo[1,5-a]pyridin-6-yl]ethyl}pyrazolo[1,5-a]pyrimidine-3-carboxamide trifluoroacetate]
IC50 [1]: < 100 nM
IC50 [2]: < 100 nM
IC50 [3, 4]: < 500 nM

CC(NC(=O)c1c(N)nn2cccnc12)c1cc(Cl)c2c(C#N)cnn2c1N1CCS(=O)(=O)CC1 (stereo not drawn) [Example 60, 2-Amino-N-(1-(4-chloro-3-cyano-7-(1,1-dioxidothiomorpholino)pyrazolo[1,5-a]pyridin-6-yl)ethyl)pyrazolo[1,5-a]pyrimidine-3-carboxamide trifluoroacetate]
IC50 [1]: < 100 nM
IC50 [2]: < 500 nM
IC50 [3, 4]: < 500 nM

CC1CN(c2c(C(NC(=O)c3c(N)nn4cccnc34)C(F)(F)F)cc(Cl)c3c(C#N)ncn23)CCS1(=O)=O (stereo not drawn) [Example 177, 2-Amino-N-(1-(8-chloro-1-cyano-5-(2-methyl-1,1-dioxidothiomorpholino)imidazo[1,5-a]pyridin-6-yl)-2,2,2-trifluoroethyl)pyrazolo[1,5-a]pyrimidine-3-carboxamide trifluoroacetate salt]
IC50 [1]: < 100 nM
IC50 [2]: ≥ 2000 nM
IC50 [3, 4]: < 1000 nM

CCOC(=O)C1CC=C(c2c(C(C)NC(=O)c3c(N)nn4cccnc34)cc(Cl)c3cn[nH]c23)CC1 (stereo not drawn) [Example 97, Ethyl 4-[6-(1-{[(2-aminopyrazolo[1,5-a]pyrimidin-3-yl)carbonyl]amino}ethyl)-4-chloro-2H-indazol-7-yl]cyclohex-3-ene-1-carboxylate bistrifluoroacetate]
IC50 [1]: < 100 nM
IC50 [2]: < 500 nM
IC50 [3, 4]: < 1000 nM

CC1(C)CN(c2c(CNC(=O)c3c(N)nn4cccnc34)cc(Cl)c3cncn23)CCS1(=O)=O [Example 168, 2-Amino-N-((8-chloro-5-(2,2-dimethyl-1,1-dioxido-thiomorpholino)imidazo[1,5-a]pyridin-6-yl)methyl) pyrazolo[1,5-a] pyrimidine-3-carboxamide trifluoroacetate salt]
IC50 [1]: < 100 nM
IC50 [2]: < 2000 nM
IC50 ([3]; THP-1 cells): > 1000 nM

CC(NC(=O)c1c(N)nn2cccnc12)c1cc(Cl)c2cn[nH]c2c1OCCO (stereo not drawn) [Example 84, 2-Amino-N-(1-(4-chloro-7-(2-hydroxyethoxy)-1H-indazol-6-yl)ethyl)pyrazolo[1,5-a]pyrimidine-3-carboxamide trifluoroacetate]
IC50 [1]: < 100 nM
IC50 [2]: < 100 nM
IC50 [3, 4]: < 500 nM

CC(NC(=O)c1c(N)nn2cccnc12)c1cc(Cl)c2cncn2c1-c1cncc(S(C)(=O)=O)c1 (racemic) [Example 131, 2-Amino-N-(1-{8-chloro-5-[5-(methylsulfonyl)pyridin-3-yl]imidazo[1,5-a]pyridin-6-yl}ethyl)pyrazolo[1,5-a]pyrimidine-3-carboxamide trifluoroacetate salt]
IC50 [1]: < 100 nM
IC50 [2]: < 100 nM
IC50 [3, 4]: < 500 nM

Nc1nn2cccnc2c1C(=O)NCc1cc(Cl)c2cncn2c1N1CCCC1 [Example 171, 2-Amino-N-((8-chloro-5-(pyrrolidin-1-yl)imidazo[1,5-a]pyridin-6-yl)methyl)pyrazolo[1,5-a]pyrimidine-3-carboxamide trifluoroacetate salt]
IC50 [1]: < 100 nM
IC50 [2]: < 500 nM
IC50 [3, 4]: > 1000 nM

CC(NC(=O)c1c(N)nn2cccnc12)c1cc(Cl)c2cn[nH]c2c1C1=CCC(C#N)CC1 (stereo not drawn) [Example 101, 2-Amino-N-{1-[4-chloro-7-(4-cyanocyclohex-1-en-1-yl)-2H-indazol-6-yl]ethyl}pyrazolo[1,5-a]pyrimidine-3-carboxamide trifluoroacetate]
IC50 [1]: < 100 nM
IC50 [2]: < 500 nM
IC50 [3, 4]: < 500 nM

C[C@H](NC(=O)c1c(N)nn2cccnc12)c1cc(Cl)c2cncn2c1N1CCS(=O)(=O)[C@H](C)C1 [Example 31A, 2-Amino-N-((1S)-1-(8-chloro-5-(2-methyl-1,1-dioxidothiomorpholino)imidazo[1,5-a]pyridin-6-yl)ethyl)pyrazolo[1,5-a]pyrimidine-3-carboxamide trifluoroacetate salt]
IC50 [1]: < 100 nM
IC50 [2]: < 100 nM
IC50 [3, 4]: < 500 nM

Nc1nn2cccnc2c1C(=O)NCc1cc(Cl)c2cncn2c1N1CCS(=O)(=O)CC1 [Example 166, 2-Amino-N-{[8-chloro-5-(1,1-dioxidothiomorpholin-4-yl)imidazo[1,5-a]pyridin-6-yl]methyl}pyrazolo[1,5-a]pyrimidine-3-carboxamide trifluoroacetate salt]
IC50 [1]: < 100 nM
IC50 [2]: < 2000 nM
IC50 [3, 4]: < 1000 nM

Cc1nc(C(F)(F)F)c2c(Cl)cc(C(C)NC(=O)c3c(N)nn4cccnc34)c(-c3ccccc3)n12 (racemic) [Example 124, 2-Amino-N-{1-[8-chloro-3-methyl-5-phenyl-1-(trifluoromethyl)imidazo[1,5-a]pyridin-6-yl]ethyl}pyrazolo[1,5-a]pyrimidine-3-carboxamide trifluoroacetate salt]
IC50 [1]: < 500 nM
IC50 [2]: ≥ 2000 nM
IC50 [3, 4]: > 1000 nM

CCOc1c(C(C)NC(=O)c2c(N)nn3ccc(-c4cncc(CO)c4)nc23)cc(Cl)c2cn[nH]c12 (stereo not drawn) [Example 42, 2-Amino-N-(1-(4-chloro-7-ethoxy-1H-indazol-6-yl)ethyl)-5-(5-(hydroxymethyl)pyridin-3-yl)pyrazolo[1,5-a]pyrimidine-3-carboxamide]
IC50 [1]: < 100 nM
IC50 [2]: < 100 nM
IC50 [3, 4]: < 500 nM

CCOc1c(C(C)NC(=O)c2c(N)nc3ccc(-c4cncc(CO)c4)nn23)cc(Cl)c2cn[nH]c12 (stereo not drawn) [Example 48, 2-Amino-N-(1-(4-chloro-7-ethoxy-1H-indazol-6-yl)ethyl)-6-(5-(hydroxymethyl)pyridin-3-yl)imidazo[1,2-b]pyridazine-3-carboxamide]
IC50 [1]: < 100 nM
IC50 [2]: < 100 nM
IC50 [3, 4]: < 500 nM

CNC(=O)C1CCN(c2c(C(C)NC(=O)c3c(N)nn4cccnc34)cc(Cl)c3cn[nH]c23)C1 (single isomer, unassigned) [Example 103A, 2-Amino-N-[1-(4-chloro-7-{3-[(methylamino)carbonyl]pyrrolidin-1-yl}-2H-indazol-6-yl)ethyl]pyrazolo[1,5-a]pyrimidine-3-carboxamide trifluoroacetate]
IC50 [1]: < 100 nM
IC50 [2]: < 500 nM
IC50 [3, 4]: < 1000 nM

CC(NC(=O)c1c(N)nn2cccnc12)c1cc(Cl)c2cncn2c1N1CCC(C)(C)C1 (stereo not drawn) [Example 74, 2-Amino-N-{1-[8-chloro-5-(3,3-dimethylpyrrolidin-1-yl)imidazo[1,5-a]pyridin-6-yl]ethyl}pyrazolo[1,5-a]pyrimidine-3-carboxamide bistrifluoroacetate]
IC50 [1]: < 100 nM
IC50 [2]: < 100 nM
IC50 [3, 4]: < 500 nM

CC1CCN(c2c(C(C)NC(=O)c3c(N)nn4cccnc34)cc(Cl)c3cncn23)CC1 (stereo not drawn) [Example 69, 2-Amino-N-{1-[8-chloro-5-(4-methylpiperidin-1-yl)imidazo[1,5-a]pyridin-6-yl]ethyl}pyrazolo[1,5-a]pyrimidine-3-carboxamide bistrifluoroacetate]
IC50 [1]: < 100 nM
IC50 [2]: < 500 nM
IC50 [3, 4]: < 1000 nM
